Laboratory results taken from ChEMBL document CHEMBL4431356, “Synthesis and activity of benzimidazole-1,3-dioxide inhibitors of separase” (Bioorg Med Chem Lett, 2016).

Key:
Separin [1] = target: T1, Separin (Homo sapiens, UniProt Q14674); assay: Inhibition of epitope-tagged separase (unknown origin) using Rad21-MCA as substrate preincubated for 1 hr followed by substrate addition measured after 3 hrs by fluorescence assay
Separin [2] = target: T1, Separin; assay: Inhibition of human ZZ TEV4-tagged separase expressed in human 293T cells using (Rad21)2-Rh110 as substrate preincubated for 1 hr followed by substrate addition measured after 3 hrs by fluorescence assay

T1 sequence (Q14674 whole entry): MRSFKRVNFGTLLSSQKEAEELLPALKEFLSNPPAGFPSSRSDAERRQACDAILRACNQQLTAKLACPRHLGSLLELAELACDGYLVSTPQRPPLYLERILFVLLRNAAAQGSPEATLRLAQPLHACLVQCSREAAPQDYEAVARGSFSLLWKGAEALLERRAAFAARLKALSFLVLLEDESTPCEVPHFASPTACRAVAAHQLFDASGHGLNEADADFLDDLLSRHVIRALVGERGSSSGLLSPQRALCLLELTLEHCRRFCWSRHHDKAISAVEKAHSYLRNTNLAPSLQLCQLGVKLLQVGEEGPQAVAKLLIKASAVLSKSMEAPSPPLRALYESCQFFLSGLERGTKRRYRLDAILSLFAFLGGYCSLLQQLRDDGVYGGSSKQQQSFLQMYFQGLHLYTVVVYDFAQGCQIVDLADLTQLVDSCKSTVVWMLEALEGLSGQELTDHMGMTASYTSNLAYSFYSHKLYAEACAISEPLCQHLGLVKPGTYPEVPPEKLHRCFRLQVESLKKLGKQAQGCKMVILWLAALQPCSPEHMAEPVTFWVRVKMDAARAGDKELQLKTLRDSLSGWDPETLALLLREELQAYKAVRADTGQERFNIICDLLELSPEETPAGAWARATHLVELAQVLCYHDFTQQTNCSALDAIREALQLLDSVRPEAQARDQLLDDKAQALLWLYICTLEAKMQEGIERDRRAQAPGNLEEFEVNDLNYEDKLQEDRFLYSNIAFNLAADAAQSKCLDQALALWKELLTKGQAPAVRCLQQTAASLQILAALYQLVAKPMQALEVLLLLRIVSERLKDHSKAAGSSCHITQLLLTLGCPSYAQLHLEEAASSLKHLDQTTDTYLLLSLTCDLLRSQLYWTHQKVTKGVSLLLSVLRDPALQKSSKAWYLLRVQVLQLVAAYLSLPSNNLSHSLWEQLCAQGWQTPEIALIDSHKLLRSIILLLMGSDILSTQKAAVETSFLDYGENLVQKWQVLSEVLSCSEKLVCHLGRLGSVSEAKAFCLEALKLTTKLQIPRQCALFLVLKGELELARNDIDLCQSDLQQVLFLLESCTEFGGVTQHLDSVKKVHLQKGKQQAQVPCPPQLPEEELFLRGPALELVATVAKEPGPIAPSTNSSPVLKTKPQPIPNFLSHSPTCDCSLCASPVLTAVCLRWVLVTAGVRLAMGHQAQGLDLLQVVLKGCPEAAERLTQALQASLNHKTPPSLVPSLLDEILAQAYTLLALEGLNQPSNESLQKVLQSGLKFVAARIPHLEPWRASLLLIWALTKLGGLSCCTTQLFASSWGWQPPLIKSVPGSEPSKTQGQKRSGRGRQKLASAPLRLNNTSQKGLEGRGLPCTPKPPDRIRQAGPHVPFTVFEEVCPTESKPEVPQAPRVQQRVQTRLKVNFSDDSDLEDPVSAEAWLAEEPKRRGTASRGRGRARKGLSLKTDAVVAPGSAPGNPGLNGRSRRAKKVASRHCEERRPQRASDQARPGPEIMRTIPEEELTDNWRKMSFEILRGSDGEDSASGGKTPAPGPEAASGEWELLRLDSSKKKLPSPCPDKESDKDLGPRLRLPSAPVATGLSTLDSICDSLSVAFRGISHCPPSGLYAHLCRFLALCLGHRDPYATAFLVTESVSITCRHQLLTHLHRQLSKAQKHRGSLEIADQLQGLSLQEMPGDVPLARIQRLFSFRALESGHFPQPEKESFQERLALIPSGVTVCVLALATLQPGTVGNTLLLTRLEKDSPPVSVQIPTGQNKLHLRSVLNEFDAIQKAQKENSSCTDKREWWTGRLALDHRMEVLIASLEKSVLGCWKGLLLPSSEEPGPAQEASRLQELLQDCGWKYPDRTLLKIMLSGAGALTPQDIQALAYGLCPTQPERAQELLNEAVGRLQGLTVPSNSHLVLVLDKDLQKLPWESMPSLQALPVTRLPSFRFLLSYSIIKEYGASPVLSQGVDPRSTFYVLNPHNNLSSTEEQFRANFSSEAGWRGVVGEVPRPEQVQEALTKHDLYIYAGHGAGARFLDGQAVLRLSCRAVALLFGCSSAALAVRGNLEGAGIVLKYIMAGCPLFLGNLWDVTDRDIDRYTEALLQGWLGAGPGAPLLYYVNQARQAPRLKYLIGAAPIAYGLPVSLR

SMILES	IC50 (Separin [1])	IC50 (Separin [2])
CC1(C)[N+]([O-])=c2ccc(Br)cc2=[N+]1[O-]	> 100 µM	–
CCCCNc1ccc2c(c1)=[N+]([O-])C(C)(C)[N+]=2[O-]	> 100 µM	–
CC1(C)[N+]([O-])=c2ccc(-c3ccccc3)cc2=[N+]1[O-]	> 100 µM	–
CC1(C)[N+]([O-])=c2ccc(C(=O)O)cc2=[N+]1[O-]	> 100 µM	–
CCOc1ccc2c(c1)=[N+]([O-])C(C)(C)[N+]=2[O-]	> 100 µM	–
CC1(C)[N+]([O-])=c2ccc(C(F)(F)F)cc2=[N+]1[O-]	> 100 µM	–
COC(=O)c1ccc2c(c1)[n+]([O-])c(C)c(C)[n+]2[O-]	> 100 µM	–
CC1(C)[N+]([O-])=c2ccc([N+](=O)[O-])cc2=[N+]1[O-]	17.8 µM	15 µM
COC(=O)c1ccc2c(c1)=[N+]([O-])C(C)(C)[N+]=2[O-]	> 100 µM	–
O=[N+]([O-])c1ccc2c(c1)=[N+]([O-])C1(CCCCC1)[N+]=2[O-]	16.2 µM	–
CC1(C)[N+]([O-])=c2ccc(F)cc2=[N+]1[O-]	> 100 µM	–
O=[N+]([O-])c1ccc2nonc2c1	> 100 µM	–
CCOc1cc2c(cc1F)=[N+]([O-])C(C)(C)[N+]=2[O-]	> 100 µM	–
